Data as given in paper PMC3981819, “Signaling Properties and Pharmacological Analysis of Two Sulfakinin Receptors from the Red Flour Beetle, Tribolium castaneum” (PLoS ONE, 2014).

Assays:
[1] = test system: Trica-SKR1; assay: Aequorin-luminescence assay, CHO-WTA11 cells (Gα16) transfected with Trica-SKR1; format: cell-based, Tribolium castaneum; conditions: for % Trica-SKR1 (relative activation): peptide at 1 μM, relative to sTrica-SK(5–13) at 1 μM = 100%, at least three biological repeats, each in duplicate
Experimental: (§1) General pharmacological studies were performed in Chinese Hamster Ovary (CHO) WTA11 cells, stably coexpressing apoaequorin, a zeocin resistance gene and the promiscuous Gα16, which couples most agonist-induced GPCRs to the phospholipase C and Ca^2+ pathway irrespective of their natural signaling cascade. CHO-PAM28 cells stably expressing apoaequorin and a puromycin resistance gene but not Gα16 and HEK293T cells (Invitrogen) were used to determine possible effects on Ca^2+ and/or cAMP second messenger systems, respectively. All cell lines were cultured in Dulbecco’s Modified Eagles Medium nutrient mixture F12-Ham (DMEM/F12; Invitrogen) supplemented with 1% penicillin/streptomycin (10000 units/ml penicillin and 10 mg/ml streptomycin in 0.9% NaCl; Invitrogen) to prevent bacterial contamination of gram-positive and gram-negative bacteria. In CHO-WTA11 culture medium 250 μg/ml zeocin (Invitrogen) was added as a selection marker, while CHO-PAM28 culture medium was supplemented with 5 μg/ml puromycin to select cells stably expressing apoaequorin. All cell culture media were supplemented with 10% fetal bovine serum (inactivated at […]; Sigma-Aldrich).
(§2) Cells were cultured in vitro as a monolayer at 37°C with a constant supply of 5% CO2 and were subcultivated twice a week. Transfections of cells were performed in T75 flasks at 60–80% confluency. Transfection reagent for CHO cells was prepared by combining 3.75 ml Opti-MEM I (Invitrogen), 7.5 μg plasmid DNA and 18.75 μl of Plus Reagent (Invitrogen). After gently mixing and 5 min incubation at room temperature 45 μl of Lipofectamine LTX was added to the mixture. This transfection medium was incubated for 30 min at room temperature and added dropwise to the cells, supplemented with 3 ml of fresh culture medium. HEK 293T cells were cotransfected with a receptor construct (6 μg) and CRE-luciferase reporter construct (3 μg), consisting of the open reading frame of the luciferase gene, downstream of a multimerized cAMP-response-element (CRE) and promoter. After transfection, cells were grown overnight before an additional 20 ml of culture medium was supplemented. Cells were again incubated overnight for a final growth phase before luminescence screens were performed.
(§3) The aequorin luminescence assay was used to measure Ca^2+ signaling in CHO cell lines. Cells were detached using phosphate buffered saline (PBS) containing 0.2% EDTA and collected in 10 ml of DMEM/F-12 (without phenol red, with L-glutamine and 10 mM HEPES; Gibco). The viable cells were quantified using a NucleoCounter NC-100 (Chemometic). Cells were pelleted by 4 min centrifugation at 800 rpm at room temperature and resuspended in DMEM/BSA (DMEM/F-12 without phenol red, with L-glutamine and 10 mM HEPES, 0.1% bovine serum albumin) at a concentration of 5×10^6 cells/ml. Cells were then shielded from light and Coelenterazine H (Invitrogen) was added at a final concentration of 5 μM. Cells were gently shaken at room temperature for 4 h under dark conditions, allowing the aequorin holoenzyme to be reconstituted. After a 10-fold dilution in DMEM/BSA, cells were incubated another 30 min under the same conditions. Pharmacological ligands were dissolved in DMEM/BSA and 50 μl of ligand was added to wells of a 96-well plate. Wells containing 50 μl of DMEM/BSA were used as a negative control, while wells containing 1 μM of ATP served as positive control. Incubated cells were added to the wells of the 96-well plate and light emission was measured for 30 s using a Mithras LB940 (Berthold Technologies). After 30 s Triton X-100 (0.2% in DMEM/BSA) was added, lysing the cells and thus serving as an internal reference. Light emission was measured for an additional 8 s after Triton X-100 was introduced in the wells. Light emission from each well was calculated relative to the total response (ligand+Triton X-100) using the output file of Mikrowin2000 software (Mikrotek). Further analysis was done in Graphpad Prism 5.

[2] = test system: Trica-SKR2; assay: Aequorin-luminescence assay, CHO-WTA11 cells (Gα16) transfected with Trica-SKR2; format: cell-based, Tribolium castaneum; conditions: for % Trica-SKR2 (relative activation): peptide at 1 μM, relative to sTrica-SK(5–13) at 1 μM = 100%, at least three biological repeats, each in duplicate
Experimental: as §1, §2, §3

Row | Substance | % Trica-SKR1 (relative activation) ([1]; aequorin bioluminescence) [%] | % Trica-SKR2 (relative activation) ([2]; aequorin bioluminescence) [%] | EC50 ([1]; aequorin bioluminescence, 1 fM to 1 μM, ± 95% confidence interval, three independent measurements in duplicate) [nM] | times less potent than sTrica-SK(5–13) in activating the Trica-SKR1 ([1]; ratio of EC50 values) | EC50 ([2]; aequorin bioluminescence, 1 fM to 1 μM, three independent measurements in duplicate) [nM] | times less potent than sTrica-SK(5–13) as Trica-SKR2 agonist ([2]; ratio of EC50 values)
1 | DDYGHMRFa [2009[φ1]wp-1, truncated nonsulfated SK analog] | 27.2 | 17.1 | – | – | – | –
2 | DGY(SO3H)RPLQFa [1678B[φ1]wp-6, sulfated SK-like peptide encoded by C. elegans nlp-12] | 28.5 | 19.9 | – | – | – | –
3 | DY(SO3H)RPLQFa [1678A[φ1]wp-4, sulfated SK-like peptide encoded by C. elegans nlp-12] | 40.8 | 32.6 | – | – | – | –
4 | DYGHMRFa [2010[φ1]wp-1, truncated nonsulfated SK analog] | 7.6 | 8.6 | – | – | – | –
5 | FDDAGHMRFa [2008[φ1]wp-2, alanine scan analog of nsTrica-SK, tyrosine replaced] | 10.1 | 12.1 | – | – | – | –
6 | FDDYAHMRFa [2007[φ1]wp-1, alanine scan analog of nsTrica-SK, glycine replaced] | 30.6 | 25.6 | – | – | – | –
7 | FDDYGAMRFa [2006[φ1]wp-1, alanine scan analog of nsTrica-SK] | 2.3 | 3.5 | – | – | – | –
8 | FDDYGHARFa [2005[φ1]wp-3, alanine scan analog of nsTrica-SK] | 5.1 | 11.1 | – | – | – | –
9 | FDDYGHMAFa [2004[φ1]wp-1, alanine scan analog of nsTrica-SK] | 5.9 | 7.3 | – | – | – | –
10 | FDDYGHMRAa [2003[φ1]wp-2, alanine scan analog of nsTrica-SK] | 8.2 | 15.6 | – | – | – | –
11 | FDDYGHMRFa [nsTrica-SK(5–13)] | 29.9 | 23.5 | – | – | – | –
12 | FDDYGHMRa [2076[φ1]wp-2] | 25.8 | 19.7 | – | – | – | –
13 | GHMRFa [2053[φ1]wp-4, truncated nonsulfated SK analog] | 13.3 | 44.6 | – | – | – | –
14 | HMRFa [2052[φ1]wp-3, tetrapeptide HMRFamide, truncated analog] | 43.4 | 33.4 | – | – | – | –
15 | PVDY(SO3H)DRPIMAFa [1569[φ2]wp-4, sulfated neuropeptide derived from C. elegans nlp-13] | 6.2 | 13.4 | – | – | – | –
16 | SDDY(SO3H)GHMRFa [1835[φ2]wp-4, sulfated SK analog SDDY(SO3H)GHMRFa] | 58.2 | 41.4 | – | – | – | –
17 | SPVDY(SO3H)DRPIMAFa [1567[φ1]wp-5, sulfated neuropeptide derived from C. elegans nlp-13] | 23.6 | 33.7 | – | – | – | –
18 | SPVDYDRPIMAFa [1432-2[φ]wp-6, peptide derived from C. elegans nlp-13] | 16.4 | 11.2 | – | – | – | –
19 | YGHMRFa [2011[φ1]wp-1, truncated nonsulfated SK analog] | 26.3 | 21.2 | – | – | – | –
20 | pQLASDDY(SO3H)GHMRFa [sLocmi-SK, sulfated SK from the migratory locust, Locusta migratoria] | 75.0 | 79.9 | 16.8 ± 4.6 | about 150 times | 776 ± 443 | ca. 1500 times
21 | pQLASDDYGHMRFa [nsLocmi-SK, nonsulfated Locusta migratoria SK] | 22.2 | 18.2 | – | – | – | –
